pEC50: −log10 of the molar value. Like-named read-outs stand apart in the source and are kept apart here.

For one data set, the system named is HCMV strain AD-169. As to the kind of experiment: Anti-HCMV activity, AD-169 strain in MRC-5 cell line. The data set is classed as cell-based, human cytomegalovirus. The conditions noted are these: HCMV AD-169 in MRC-5 cell line. How it is done: (§1) Assays of anti-HCMV activity were conducted by Drs. R. Sidwell and J. Huffman at Utah State University with the AD-169 strain in the MRC-5 cell line as described in Huffman et al. (1994), Nucleosides and Nucleotides 33:607-613.

Data set [1] in a line: Cytotoxicity in the anti-HCMV assay (MRC-5 cell line). Conditions: human, mrc-5 cells. The data set is classed as cell-based. As for the experimental part: as §1
For a further data set, the system named is HIV strain RF. As to the kind of experiment: Inhibition of cytopathic effect of HIV strain RF in CEM-SS cells. The data set is classed as cell-based, human immunodeficiency virus. As for the experimental part: (§2) Assays for anti-HIV activity of poly(1-propargylinosineic) prepared according to the procedure of Examples 1-4 were conducted by Dr. Robert Buckheit, Jr. of the Southern Research Institute with strains of HIV-1 and HIV-2 in various cell lines and with cell free preparations of reverse transcriptase as previously described, Broom et al. (1995), J. Med. Chem. 38:3253-3257.

Another data set relates to HIV strain IIIB. Kind of data set: Inhibition of cytopathic effect of HIV strain IIIB in CEM-SS cells. The data set is classed as cell-based, human immunodeficiency virus. The conditions noted are these: polynucleotide concentration based on average molecular weight of 100,000, read-out: EC50 against cytopathic effect, virus IIIB. As for the experimental part:
as §2
Background: Protection from cytopathic effect is a common read-out in antiviral testing.

The subject of the next data set is HIV strain SK1. As to the kind of experiment: Inhibition of cytopathic effect of HIV strain SK1 in CEM-SS cells. The data set is classed as cell-based, human immunodeficiency virus. How it is done:
as §2

A further data set deals with HIV strain ROD. Kind of data set: Inhibition of cytopathic effect of HIV strain ROD in CEM-SS cells. The data set is classed as cell-based, human immunodeficiency virus. How it is done:
as §2

In data set [2] the test system is reverse transcriptase (RT). As to the kind of experiment: Inhibition of reverse transcriptase in a cell free supernate. The data set is classed as biochemical, human immunodeficiency virus. The conditions noted are these: concentrations based on average molecular weight of 100,000. How it is done: as §2
Another data set has as its system MRC-5 cell line. As to the kind of experiment: Cytotoxicity in the anti-HCMV assay (MRC-5 cell line). The data set is classed as cell-based. The conditions noted are these: MRC-5 cell line. How it is done:
as §1

In general, CC50 refers to the concentration that lowers cell viability or growth by half. Regarding `Nc1nc(O)c2ncn(COC(CO)CO)c2n1` [Ganciclovir, ganciclovir], the “TI = CD50 / ED50” value in the data set with HCMV strain AD-169 is on record as above 417. Also, the pEC50 with HCMV strain AD-169 (Human betaherpesvirus 5, AD169, MRC5, polynucleotide concentration based on average molecular weight of 100,000 daltons, read-out: ED50 (50% effective dose)) is 5.03. For the same compound, the EC50 with HCMV strain AD-169 (Human betaherpesvirus 5, AD169, MRC5, read-out: ED50 (50% effective dose)) is 2.4 µg/mL. The compound further had a CC50 in data set [1] above 1000 µg/mL.

For the compound `Nc1ccn([C@H]2CC[C@@H](CO)O2)c(=O)n1` [ddC, reference compound], the pEC50 in the data set on HIV strain RF (Human immunodeficiency virus 1, polynucleotide concentration based on average molecular weight of 100,000, read-out: EC50 against cytopathic effect, virus RF) is 7.41; in the data set with HIV strain IIIB (Human immunodeficiency virus 1, IIIB), 7.16; in the data set with HIV strain SK1 (Human immunodeficiency virus 1, polynucleotide concentration based on average molecular weight of 100,000, read-out: EC50 against cytopathic effect, virus SK1) it was 7.60; in the data set on HIV strain ROD (Human immunodeficiency virus 1, polynucleotide concentration based on average molecular weight of 100,000, read-out: EC50 against cytopathic effect, virus ROD), 7.21.

In the case of poly(1-propargylinosinic acid), the pEC50 in the data set with HIV strain RF (Table 2, RF strain, concentrations based on average molecular weight of 100,000, read-out: CEM-SS (RF), EC50) is 6.88; in the data set with HIV strain RF (polynucleotide concentration based on average molecular weight of 100,000, read-out: EC50 against cytopathic effect, virus RF), 6.88; in the data set on HIV strain IIIB it was 6.58; in the data set on HIV strain SK1 (polynucleotide concentration based on average molecular weight of 100,000, read-out: EC50 against cytopathic effect, virus SK1) it was 7.35; with HIV strain ROD (polynucleotide concentration based on average molecular weight of 100,000, read-out: EC50 against cytopathic effect, virus ROD) it was 7.24; in data set [2], 6.65. Also, the “ED50 (50% effective dose)” value in the data set on HCMV strain AD-169 came out at 1.9 µg/mL. For the same compound, the “ED50 (50% effective dose), molar” value in the data set with HCMV strain AD-169 (polynucleotide concentration based on average molecular weight of 100,000 daltons) was 19 nM. For the same compound, in the data set on MRC-5 cell line, the “CD50 (50% cytotoxic dose)” value is 316 µg/mL. In addition, the “CD50 (50% cytotoxic dose), molar” value in the data set on MRC-5 cell line (concentration based on average molecular weight of 100,000 daltons) is 3.16 µM.
